Measured values: US20090275557A1, “Novel Composition for Treatment of Diseases Related to Activated Lymphocytes” (Immune Control, Inc., priority 2008, published 2009)
Where “and” joins values, the source holds several entries; their conditions need not be identical. Identical values can stand only once. Like-named read-outs stand apart in the source and are kept apart here.

Tests used:
[1] = system: bovine type 2 collagen immunized female Lewis rats; experiment: Collagen-induced arthritis assay, oral gavage treatment, ankle diameter; assay type: in vivo, rat; conditions: larger standard errors at each dose
Description: (§1) Female Lewis rats (CR) weighing between 125-200 g were immunized with bovine type 2 collagen, 2 mg/ml in a 1:1 solution of 0.01 N acetic acid and Freund's incomplete adjuvant (“FIA”). A 0.1 ml portion of the collagen solution was injected id (intradermally) at three sites on the rat. Rats were immunized with the collagen solution on days 1 and 6 of the study. […] On day 9 (study day “0”), baseline ankle diameters were measured. On days 10-15 (study days 1-6), the rats were then treated, via oral gavage, with either 1, 5, or 25 mg/kg of one of ICI-1259 or ICI-1260, prepared as described below. Ankle diameter measurements were measured on each of days 10-16.
Separate solutions of ICI-1259 and ICI-1260 were prepared in Dulbecco's PBS (pH 7) (“vehicle”) at 1 mg/ml. Control animals, who had not been immunized, were given vehicle without any compound. In a further control, immunized rats were given vehicle without ICI-1259 or ICI-1260. In still another control, immunized rats were treated with Enbrel™ at 10 mg/kg.

[2] = system: bovine type 2 collagen immunized rats; experiment: Collagen-induced arthritis assay, IP injection protocol, ankle diameter; assay type: in vivo, rat
Description: as §1
Compounds ICI-1259, ICI-1260, ICI-1505, and ICI-1506 were administered via IP injection to treat collagent-induced arthritis in a variation of the experiments described above. Under the protocol of the IP injection experiments, animal were immunized with Bovine Type 2 collagen as previously described. […] On day 9 (study day “0”), baseline ankle diameters were measured. On days 10-12 (study days 1-3), the rats were then treated once per day, via IP injection, with one of ICI-1259, ICI-1260, ICI-1505, or ICI-1506 at 10 mg/kg. Ankle diameter in the immunized rodents was measured on each of days 10-13 as well as on day 14. […] See FIG. 18 (ICI-1259, ICI-1260, and ICI-1505) and FIG. 19 (ICI-1506).
In a separate study, using the IP injection protocol described above, ICI-1259 and 1260 were each dosed at 2 mg/kg and 0.4 mg/kg.

[3] = Pharmacokinetic study, oral gavage in fasted male Sprague-Dawley rats; assay type: in vivo, rat
Description: ICI-1259 and ICI-1260 were supplied as powders and stored frozen until used. Dosing solutions in phosphate buffered saline were prepared at 1 mg/ml. These solutions were then evaluated in fasted male Sprague-Dawley rats. The rats were fitted with a jugular vein cannula for blood sampling. Rats were also fitted with an additional jugular vein cannula, or intradudodenal cannula as needed. Rats were given a commercial rodent diet ad libitum prior to study initiation. Food was then withheld from the animals for a minimum of twelve hours prior to dosing, until four hours postdose when food was returned. Water was supplied ad libitum. Three rats were used in each study, unless otherwise indicated.
For both ICI-1259 and ICI-1260, rats were given a 10 mg/kg dose from a 1 mg/ml solution. The appropriate volume of solution was given as a single bolus dose at time zero on the day of dosing. Blood samples were taken at predose, 5 minutes after dosing, 10 minutes after dosing, 15 minutes after dosing, 30 minutes after dosing, 1 hour after dosing, 2 hours after dosing, 4 hours after dosing, 6 hours after dosing, and 8 hours after dosing.

5-HT2A = experiment: 5-HT receptor binding, displacement of tritiated ligands; conditions: at 10 μM
Description: (§2) 5-HT receptor binding was measured using membrane preparations of brain regions known to be enriched with given 5-HT receptor subtype(s). The assay subsequently measured the displacement of tritiated ligands known to bind to a given 5-HT subtype.
(§3) A receptor binding assay was performed for ICI-1259 and ICI-1260 showing that at 10 μM, these compounds bind receptors 5-HT1A(h), 5-HT1B, 5-HT1D(h), 5-HT2A, 5-HT2A(h), 5-HT2B, 5-HT2C, 5-HT3,5-HT3(h), 5-HT4, 5-HT5A(h), 5-HT6, and 5-HT7.

5-HT1A(h) = target: T1, 5-HT1A(h) (Homo sapiens, UniProt P08908); experiment: as above; conditions: at 10 μM
T1 construct: from tissue
T1 sequence (P08908 1-422): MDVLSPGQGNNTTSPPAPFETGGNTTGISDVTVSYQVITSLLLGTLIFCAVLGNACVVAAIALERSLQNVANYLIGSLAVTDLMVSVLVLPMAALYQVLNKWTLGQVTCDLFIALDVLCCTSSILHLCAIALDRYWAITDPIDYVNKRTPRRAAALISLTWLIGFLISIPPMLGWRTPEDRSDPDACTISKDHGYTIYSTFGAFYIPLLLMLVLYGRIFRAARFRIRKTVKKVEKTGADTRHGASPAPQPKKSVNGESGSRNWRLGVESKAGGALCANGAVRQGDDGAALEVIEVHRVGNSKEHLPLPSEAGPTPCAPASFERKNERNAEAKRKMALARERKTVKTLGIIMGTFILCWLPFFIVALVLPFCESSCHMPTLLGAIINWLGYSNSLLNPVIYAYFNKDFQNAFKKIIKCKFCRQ
Description: as §2, §3

5-HT2C = experiment: as above; conditions: at 10 μM
Description: as §2, §3

5-HT7 = experiment: as above; conditions: at 10 μM
Description: as §2, §3

5-HT4 = experiment: as above; conditions: at 10 μM
Description: as §2, §3

[4] = individual rats, oral gavage 10 mg/kg, 10 mg/kg
[5] = male, Sprague-Dawley, rat, plasma, po, 10 mg/kg, individual rats, oral gavage 10 mg/kg
[6] = male, Sprague-Dawley, rat, plasma, po, 10 mg/kg, mean, oral gavage 10 mg/kg

Which results are given for NCC(=O)NCCCN1CCC(CCCN2c3ccccc3Sc3ccc(C(F)(F)F)cc32)CC1 [ICI-1260, 2-amino-N-(3-(4-(3-(2-(trifluoromethyl)-10H-phenothiazin-10-yl)propyl)piperidin-1-yl)propyl)acetamide]?
reduction in ankle swelling ([1]; oral 5 mg/kg): showed a reduction in ankle swelling; reduction in ankle swelling ([1]; oral 25 mg/kg): showed a reduction in ankle swelling; reduction in ankle swelling (ankle diameter) ([2]; IP injection 0.4 mg/kg): Statistically significant results were only observed for ICI-1260 at 2 mg/kg; reduction in ankle swelling (ankle diameter) ([2]; IP injection 2 mg/kg, study days 3 and 4): Statistically significant results; reduction in ankle swelling (ankle diameter) ([2]; IP injection 10 mg/kg once per day, study days 1-3, observed on study days 2-4): statistically significant results were observed; dose absorbed after oral dosing ([3]; indirectly indicated by the average bioavailability, oral 10 mg/kg): approximately 26%; AUClast [3, 4]: 84.9 ng·h/mL and 95.9 ng·h/mL; Cmax [3, 4]: 22.2 ng/mL and 25.9 ng/mL; Dose Normalized AUClast [3, 4]: 11.2 kg·ng·h/mL/mg and 8.49 kg·ng·h/mL/mg and 9.59 kg·ng·h/mL/mg; Dose Normalized AUC∞ [3, 4]: 9.40 kg·ng·h/mL/mg and 11.1 kg·ng·h/mL/mg; Tmax [3, 4]: 1.0 h; t1/2 [3, 4]: 2.6 h; Plasma concentration ([3]; individual rats, oral gavage 10 mg/kg, 0.083 hr, BLOQ = below limit of quantitation (1 ng/mL), 10 mg/kg): 1.33 ng/mL and BLOQ; Plasma concentration ([3]; individual rats, oral gavage 10 mg/kg, 0.25 hr, 10 mg/kg): 9.32 ng/mL and 2.68 ng/mL and 7.31 ng/mL; Plasma concentration ([3]; individual rats, oral gavage 10 mg/kg, 0.50 hr, 10 mg/kg): 8.00 ng/mL and 3.02 ng/mL and 6.16 ng/mL; Plasma concentration ([3]; individual rats, oral gavage 10 mg/kg, 1.0 hr, 10 mg/kg): 5.33 ng/mL and 5.38 ng/mL and 25.9 ng/mL; Plasma concentration ([3]; individual rats, oral gavage 10 mg/kg, 2.0 hr, 10 mg/kg): 22.2 ng/mL and 24.0 ng/mL; Plasma concentration ([3]; individual rats, oral gavage 10 mg/kg, 4.0 hr, 10 mg/kg): 4.89 ng/mL and 11.7 ng/mL and 7.39 ng/mL; Plasma concentration ([3]; individual rats, oral gavage 10 mg/kg, 6.0 hr, 10 mg/kg): 19.8 ng/mL and 9.71 ng/mL and 8.98 ng/mL; Plasma concentration ([3]; individual rats, oral gavage 10 mg/kg, 8.0 hr, 10 mg/kg): 2.87 ng/mL and 3.93 ng/mL; bioavailability ([3]; individual rats, oral gavage 10 mg/kg, dose normalized AUC divided by average intravenous AUC, 10 mg/kg): 9.0%; AUC∞ ([3]; individual rats, oral gavage 10 mg/kg, extrapolated to infinity, 10 mg/kg): 111 ng·h/mL; AUC(0-t) [3, 5]: 112 ng·h/mL; half-life [3, 5]: 2.2 h; concentration at 0.083 hr ([3]; male, Sprague-Dawley, rat, plasma, po, 10 mg/kg, individual rats, oral gavage 10 mg/kg, 0.083 hr, BLOQ = below limit of quantitation (1 ng/mL)): 1.48 ng/mL; concentration at 2 hr ([3]; male, Sprague-Dawley, rat, plasma, po, 10 mg/kg, individual rats, oral gavage 10 mg/kg, 2.0 hr): 33.8 ng/mL; concentration at 8 hr ([3]; male, Sprague-Dawley, rat, plasma, po, 10 mg/kg, individual rats, oral gavage 10 mg/kg, 8.0 hr): 3.13 ng/mL; bioavailability ([3]; male, Sprague-Dawley, rat, plasma, po, 10 mg/kg, individual rats, oral gavage 10 mg/kg, dose normalized AUC divided by average intravenous AUC, read-out: Bioavailability): 13%; AUC(0-inf) ([3]; male, Sprague-Dawley, rat, plasma, po, 10 mg/kg, individual rats, oral gavage 10 mg/kg, extrapolated to infinity): 94 ng·h/mL; Cmax ([3]; male, Sprague-Dawley, rat, plasma, po, 10 mg/kg, individual rats, oral gavage 10 mg/kg, read-out: Cmax): 33.8 ng/mL; Tmax ([3]; male, Sprague-Dawley, rat, plasma, po, 10 mg/kg, individual rats, oral gavage 10 mg/kg, read-out: tmax): 2 h; bioavailability ([3]; male, Sprague-Dawley, rat, plasma, po, 10 mg/kg, mean (average), oral gavage 10 mg/kg, read-out: Bioavailability): 11%; AUC(0-t) [3, 6]: 97.7 ng·h/mL; half-life [3, 6]: 2.4 h; concentration at 0.083 hr ([3]; male, Sprague-Dawley, rat, plasma, po, 10 mg/kg, mean, oral gavage 10 mg/kg, 0.083 hr): 1.41 ng/mL; concentration at 0.25 hr ([3]; male, Sprague-Dawley, rat, plasma, po, 10 mg/kg, mean, oral gavage 10 mg/kg, 0.25 hr): 6.44 ng/mL; concentration at 0.5 hr ([3]; male, Sprague-Dawley, rat, plasma, po, 10 mg/kg, mean, oral gavage 10 mg/kg, 0.50 hr): 5.73 ng/mL; concentration at 1 hr ([3]; male, Sprague-Dawley, rat, plasma, po, 10 mg/kg, mean, oral gavage 10 mg/kg, 1.0 hr): 12.2 ng/mL; concentration at 2 hr ([3]; male, Sprague-Dawley, rat, plasma, po, 10 mg/kg, mean, oral gavage 10 mg/kg, 2.0 hr): 26.7 ng/mL; concentration at 4 hr ([3]; male, Sprague-Dawley, rat, plasma, po, 10 mg/kg, mean, oral gavage 10 mg/kg, 4.0 hr): 7.99 ng/mL; concentration at 6 hr ([3]; male, Sprague-Dawley, rat, plasma, po, 10 mg/kg, mean, oral gavage 10 mg/kg, 6.0 hr): 12.8 ng/mL; concentration at 8 hr ([3]; male, Sprague-Dawley, rat, plasma, po, 10 mg/kg, mean, oral gavage 10 mg/kg, 8.0 hr): 3.31 ng/mL; AUC(0-inf) ([3]; male, Sprague-Dawley, rat, plasma, po, 10 mg/kg, mean, oral gavage 10 mg/kg, extrapolated to infinity): 102 ng·h/mL; Cmax ([3]; male, Sprague-Dawley, rat, plasma, po, 10 mg/kg, mean, oral gavage 10 mg/kg, read-out: Cmax): 27.3 ng/mL; Tmax ([3]; male, Sprague-Dawley, rat, plasma, po, 10 mg/kg, mean, oral gavage 10 mg/kg, read-out: tmax): 1.7 h; Dose Normalized AUClast ([3]; mean, oral gavage 10 mg/kg): 9.77 kg·ng·h/mL/mg; Dose Normalized AUC∞ ([3]; mean, oral gavage 10 mg/kg): 10.2 kg·ng·h/mL/mg; receptor binding (5-HT2A): bind; receptor binding (5-HT1A(h)): bind; receptor binding (5-HT2C): bind; receptor binding (5-HT7): bind; receptor binding (5-HT4): bind
